Common to all, as to format: functional
The test system of one assay is Enterococcus faecalis. Description: Minimum inhibitory concentration against macrolide susceptible strain of Enterococcus faecalis (MB5407).
For the next assay, the system named is Staphylococcus aureus. As to the kind of experiment: Minimum inhibitory concentration against macrolide susceptible strain of Staphylococcus aureus (MB2865).
A further assay has as its system Enterococcus faecium. As to the kind of experiment: Minimum inhibitory concentration against macrolide susceptible strain of Enterococcus faecium (MB5516).
For the next assay, the system named is Streptococcus pyogenes. As to the kind of experiment: Minimum inhibitory concentration against macrolide susceptible strain of Streptococcus pyogenes (MB2874).
A further assay has as its system Streptococcus pneumoniae. Description: Minimum inhibitory concentration against macrolide susceptible strain of Streptococcus pneumoniae (MB3957).
Another assay concerns Bacillus subtilis. As to the kind of experiment: Minimum inhibitory concentration against macrolide susceptible strains of Bacillus subtilis (MB5586).

≈ marks a conversion by molar mass, not a printed value.

A word on the MIC: it is the smallest concentration in the dilution series that meets the test's criterion for growth inhibition. A low value points to greater potency.

Regarding `CC[C@H]1OC(=O)[C@H](C)[C@@H](O[C@H]2C[C@@](C)(OC)[C@@H](O)[C@@H](C)O2)[C@H](C)[C@@H](O[C@@H]2O[C@H](C)C[C@@H](N(C)C)[C@H]2O)[C@](C)(O)C[C@@H](C)CN(C)[C@H](C)[C@@H](O)[C@]1(C)OC`, the MIC was determined as 4 µg/mL (≈ 5.24 µM) with Enterococcus faecalis; 1 µg/mL (≈ 1.31 µM) with Staphylococcus aureus; 0.25 µg/mL (≈ 0.328 µM) in the assay with Enterococcus faecium; 0.03 µg/mL (≈ 0.0393 µM) against Streptococcus pyogenes; 0.03 µg/mL (≈ 0.0393 µM) in the assay with Streptococcus pneumoniae.
On to `CC[C@H]1OC(=O)[C@H](C)[C@@H](O[C@H]2C[C@@](C)(OC)[C@@H](OC)[C@@H](C)O2)[C@H](C)[C@@H](O[C@@H]2O[C@H](C)C[C@@H](N(C)C)[C@H]2O)[C@](C)(O)C[C@@H](C)N(C)C[C@H](C)[C@@H](O)[C@]1(C)OC`, for which the MIC against Enterococcus faecalis is 16 µg/mL (≈ 20.6 µM); with Staphylococcus aureus, 8 µg/mL (≈ 10.3 µM); in the assay on Enterococcus faecium it was 4 µg/mL (≈ 5.15 µM); against Streptococcus pyogenes, 0.25 µg/mL (≈ 0.322 µM); in the assay with Streptococcus pneumoniae, 1 µg/mL (≈ 1.29 µM); in the assay on Bacillus subtilis it was 4 µg/mL (≈ 5.15 µM).
Consider `CC[C@H]1OC(=O)[C@H](C)[C@@H](O[C@H]2C[C@@](C)(OC)[C@@H](OC)[C@@H](C)O2)[C@H](C)[C@@H](O[C@@H]2O[C@H](C)C[C@@H](N(C)C)[C@H]2O)[C@](C)(O)C[C@@H](C)N(C)C[C@H](C)[C@@H](OC)[C@]1(C)O`, for which the MIC is 32 µg/mL (≈ 41.2 µM) with Enterococcus faecalis; 32 µg/mL (≈ 41.2 µM) with Staphylococcus aureus; 16 µg/mL (≈ 20.6 µM) in the assay on Enterococcus faecium; 0.5 µg/mL (≈ 0.643 µM) in the assay on Streptococcus pyogenes; 2 µg/mL (≈ 2.57 µM) in the assay with Streptococcus pneumoniae; 16 µg/mL (≈ 20.6 µM) in the assay with Bacillus subtilis.
On to `CC[C@H]1OC(=O)[C@H](C)[C@@H](O[C@H]2C[C@@](C)(OC)[C@@H](O)[C@H](C)O2)[C@H](C)[C@@H](O[C@@H]2O[C@H](C)C[C@H](N(C)C)[C@H]2O)[C@](C)(O)C[C@@H](C)CN(C)[C@H](C)[C@@H](O)[C@]1(C)O` [AZITHROMYCIN], for which the MIC was 4 µg/mL (≈ 5.34 µM) in the assay on Enterococcus faecalis; 0.5 µg/mL (≈ 0.668 µM) in the assay with Staphylococcus aureus; 0.25 µg/mL (≈ 0.334 µM) against Enterococcus faecium; 0.03 µg/mL (≈ 0.0401 µM) against Streptococcus pyogenes; less than 0.06 µg/mL in the assay on Streptococcus pneumoniae; 1 µg/mL (≈ 1.34 µM) with Bacillus subtilis.
As for `CC[C@H]1OC(=O)[C@H](C)[C@@H](O[C@H]2C[C@@](C)(OC)[C@@H](OC)[C@@H](C)O2)[C@H](C)[C@@H](O[C@@H]2O[C@H](C)C[C@@H](N(C)C)[C@H]2O)[C@](C)(O)C[C@@H](C)N(C)C[C@H](C)[C@@H](O)[C@]1(C)O`, the MIC in the assay on Enterococcus faecalis worked out at 8 µg/mL (≈ 10.5 µM); against Staphylococcus aureus, 8 µg/mL (≈ 10.5 µM); in the assay with Enterococcus faecium it was 2 µg/mL (≈ 2.62 µM); against Streptococcus pyogenes, 0.03 µg/mL (≈ 0.0393 µM); in the assay with Streptococcus pneumoniae, 0.5 µg/mL (≈ 0.655 µM); in the assay on Bacillus subtilis it was 4 µg/mL (≈ 5.24 µM).
As to `CC[C@H]1OC(=O)[C@H](C)[C@@H](O[C@H]2C[C@@](C)(OC)[C@@H](O)[C@@H](C)O2)[C@H](C)[C@@H](O[C@@H]2O[C@H](C)C[C@@H](N(C)C)[C@H]2O)[C@](C)(O)C[C@@H](C)CN(C)[C@H](C)[C@@H](OC)[C@]1(C)OC`, the MIC with Enterococcus faecalis is 16 µg/mL (≈ 20.6 µM); against Staphylococcus aureus, 8 µg/mL (≈ 10.3 µM); in the assay on Enterococcus faecium, 2 µg/mL (≈ 2.57 µM); against Streptococcus pyogenes, 0.12 µg/mL (≈ 0.154 µM); against Streptococcus pneumoniae, 1 µg/mL (≈ 1.29 µM); with Bacillus subtilis it was 4 µg/mL (≈ 5.15 µM).
Consider `CC[C@H]1OC(=O)[C@H](C)[C@@H](O[C@H]2C[C@@](C)(OC)[C@@H](O)[C@@H](C)O2)[C@H](C)[C@@H](O[C@@H]2O[C@H](C)C[C@@H](N(C)C)[C@H]2O)[C@](C)(O)C[C@@H](C)CN(C)[C@H](C)[C@@H](OC)[C@]1(C)O`, for which the MIC was 8 µg/mL (≈ 10.5 µM) in the assay with Enterococcus faecalis; 1 µg/mL (≈ 1.31 µM) in the assay with Staphylococcus aureus; 0.5 µg/mL (≈ 0.655 µM) against Enterococcus faecium; 0.03 µg/mL (≈ 0.0393 µM) against Streptococcus pyogenes; 0.03 µg/mL (≈ 0.0393 µM) against Streptococcus pneumoniae; 1 µg/mL (≈ 1.31 µM) in the assay on Bacillus subtilis.
With `CC[C@H]1OC(=O)[C@H](C)[C@@H](O[C@H]2C[C@@](C)(OC)[C@@H](OC)[C@@H](C)O2)[C@H](C)[C@@H](O[C@@H]2O[C@H](C)C[C@@H](N(C)C)[C@H]2O)[C@](C)(O)C[C@@H](C)CN(C)[C@H](C)[C@@H](OC)[C@]1(C)OC`, the MIC worked out at 16 µg/mL (≈ 20.2 µM) in the assay with Enterococcus faecalis; 8 µg/mL (≈ 10.1 µM) against Staphylococcus aureus; 4 µg/mL (≈ 5.06 µM) against Enterococcus faecium; 0.25 µg/mL (≈ 0.316 µM) with Streptococcus pyogenes; 1 µg/mL (≈ 1.26 µM) against Streptococcus pneumoniae; 8 µg/mL (≈ 10.1 µM) in the assay with Bacillus subtilis.
With `CC[C@H]1OC(=O)[C@H](C)[C@@H](O[C@H]2C[C@@](C)(OC)[C@H](O)[C@H](C)O2)[C@H](C)[C@@H](O[C@@H]2O[C@H](C)C[C@H](N(C)C)[C@H]2O)[C@](C)(O)C[C@@H](C)N(C)C[C@H](C)[C@@H](O)[C@]1(C)O`, the MIC is 2 µg/mL (≈ 2.67 µM) in the assay with Enterococcus faecalis; 0.3 µg/mL (≈ 0.401 µM) in the assay with Staphylococcus aureus; 0.125 µg/mL (≈ 0.167 µM) with Enterococcus faecium; less than 0.06 µg/mL in the assay with Streptococcus pyogenes; less than 0.06 µg/mL in the assay with Streptococcus pneumoniae; 0.3 µg/mL (≈ 0.401 µM) in the assay with Bacillus subtilis.
As for `CC[C@H]1OC(=O)[C@H](C)[C@@H](O[C@H]2C[C@@](C)(OC)[C@@H](OC)[C@@H](C)O2)[C@H](C)[C@@H](O[C@@H]2O[C@H](C)C[C@@H](N(C)C)[C@H]2O)[C@](C)(O)C[C@@H](C)N(C)C[C@H](C)[C@@H](OC)[C@]1(C)OC`, the MIC in the assay on Enterococcus faecalis amounted to 32 µg/mL (≈ 40.5 µM); against Staphylococcus aureus, 32 µg/mL (≈ 40.5 µM); in the assay on Enterococcus faecium it was 8 µg/mL (≈ 10.1 µM); in the assay on Streptococcus pyogenes, 0.5 µg/mL (≈ 0.632 µM); in the assay on Streptococcus pneumoniae it was 4 µg/mL (≈ 5.06 µM); in the assay with Bacillus subtilis, 2 µg/mL (≈ 2.53 µM).

(Values after ChEMBL document CHEMBL1131642, “Synthesis and antibacterial activity of O-methyl derivatives of azalide antibiotics: I. 4", 11 and 12-OMe derivatives via direct methylation” (1998).)
